Laboratory results as given in patent US11192921B2 (priority 2017, dated 2021).
“And” between values parts separate entries of the source, which are not always exact repeats. Equal entries are not always repeated. Where two headings read alike, the source gives them in different places. Marks after values point to notes of the source that are not given here. No end group written: not given here.

Key:
Female Kunming mice [1] = format: in vivo
Kunming mice [2] = format: in vivo
male BALB/c mice [3] = assay: cancer-induced pain (CIP) model, gross behavior; format: in vivo; settings: 14th day after inoculation
Description: (§1) BALB/c mice were taken, and the right sciatic nerve was exposed; ascites containing 5×10^4 Meth A sarcoma cells were injected into the proximal nerve near the sciatic nerve trochanter far from the tendon branch of the posterior biceps, the wound was closed, and the same volume of normal saline was injected into the left side by performing a sham operation.
On the 4th, 7th, 10th and 14th days after inoculation, spontaneous pain and foot drop and the like occurred before the occurrence of thermal sensitivity and mechanical pain sensitivity behaviors, […]

Kunming mice [4] = settings: mouse, in vivo
Female Kunming mice [5] = system: Female Kunming mice
SD rats = assay: pain threshold of trigeminal nerve (trigeminal neuralgia model); format: in vivo; settings: for highest pain threshold on the operative side / pain threshold on the opposite side: 3 h after injection; for Pain threshold: intraperitoneal
Female Kunming mice [6] = system: Female Kunming mice; remark: listed apart in the source
Female Kunming mice [7] = system: Female Kunming mice; remark: listed apart in the source
male BALB/c mice [8] = assay: cancer-induced pain (CIP) model, thermosensitive test; format: in vivo; settings: heat radiation stimulation
Description: Influence of Analgesic Polypeptides on Neuralgia in a Cancer-Induced Pain (CIP) Model
A number of male BALB/c mice each weighing 25-30 g were used.
Von Fery monofilament; a microsyringe, 5 mg/mL solutions of polypeptides I, II and II I; normal saline.
as §1
1.3.1 Thermosensitive Test
On the 4th, 7th, 10th and 14th days after inoculation, the latency of foot lifting caused by heat radiation stimulation to animals was observed, and the heat radiation intensity was adjusted to cause the latency of foot lifting of normal mice to be (10±2) s.
All data was expressed as M±SD and subjected to one-way ANOVA.

[9] = 50 μg/kg, injected subcutaneously
[10] = 100 μg/kg, injected subcutaneously

GSCSTPPSAVLYC (cysteine pairing not given here) [Polypeptide II]
Pain threshold (Female Kunming mice [1]; 0 min): 27.43 ± 0.54^∧ s
Pain threshold (Female Kunming mice [1]; mouse, in vivo, ip): 42.54 ± 0.24^∧ s and 22.33 ± 0.36 s and 27.45 ± 0.52 s and 31.34 ± 0.45*^∧ s and 25.43 ± 0.54^∧ s and 26.24 ± 0.42 s
heat thresholds of mice compared with the normal saline negative control group (Female Kunming mice [1]; mouse, in vivo, ip): effectively increase the heat thresholds of mice
increase of the pain threshold compared with the normal saline group and the conotoxin group (Female Kunming mice [1]; mouse, in vivo, ip): significantly higher
Pain threshold (tail flick) (Kunming mice [2]; 0 min): 2.43 ± 0.21^∧ s
Pain threshold (tail flick) (Kunming mice [2]; 15 min): 2.52 ± 0.24 s
Pain threshold (tail flick) (Kunming mice [2]; 30 min): 2.31 ± 0.36 s
Pain threshold (tail flick) (Kunming mice [2]; 45 min): 2.45 ± 0.12 s
Pain threshold (tail flick) (Kunming mice [2]; 60 min): 2.12 ± 0.41 s
Pain threshold (tail flick) (Kunming mice [2]; 75 min): 2.23 ± 0.14^∧ s
Pain threshold (tail flick) (Kunming mice [2]; 90 min): 2.24 ± 0.12 s
left foot lifting behavior (male BALB/c mice [3]): obviously observed
analgesic effects in formalin-induced pain experiments (Kunming mice [4]): good analgesic effects
cumulative foot licking time, Phase I (Kunming mice [4]): 48.20 ± 11.31*^
cumulative foot licking time, Phase II (Kunming mice [4]): 40.53 ± 14.32
Movement distances of mice in open field tests (Female Kunming mice [5]; 1 h): 19.47 ± 1.32^
Movement distances of mice in the center area in open field tests (Female Kunming mice [5]; 1 h): 19.47 ± 1.32^
Movement distances of mice in the peripheral area in open field tests (Female Kunming mice [5]; 1 h): 19.47 ± 1.32^
Number of entrances to the center area in open field tests (Female Kunming mice [5]; 1 h): 19.47 ± 1.32^
Number of entrances to the peripheral area in open field tests (Female Kunming mice [5]; 1 h): 19.47 ± 1.32^
Residence time in the center area in open field tests (Female Kunming mice [5]; 1 h): 19.47 ± 1.32^ s
Residence time in the peripheral area in open field tests (Female Kunming mice [5]; 1 h): 19.47 ± 1.32^ s
Movement distances of mice in open field tests (Female Kunming mice [5]; 24 h): 19.03 ± 2.48 m
Movement distances of mice in the center area in open field tests (Female Kunming mice [5]; 24 h): 19.03 ± 2.48 m
Movement distances of mice in the peripheral area in open field tests (Female Kunming mice [5]; 24 h): 19.03 ± 2.48 m
Number of entrances to the center area in open field tests (Female Kunming mice [5]; 24 h): 19.03 ± 2.48
Number of entrances to the peripheral area in open field tests (Female Kunming mice [5]; 24 h): 19.03 ± 2.48
Residence time in the center area in open field tests (Female Kunming mice [5]; 24 h): 19.03 ± 2.48 s
Residence time in the peripheral area in open field tests (Female Kunming mice [5]; 24 h): 19.03 ± 2.48 s
Movement distances of mice in open field tests (Female Kunming mice [5]; Time 0): 20.98 ± 1.28 m
Movement distances of mice in the center area in open field tests (Female Kunming mice [5]; Time 0): 20.98 ±1.28 m
Movement distances of mice in the peripheral area in open field tests (Female Kunming mice [5]; Time 0): 20.98 ± 1.28 m
Number of entrances to the center area in open field tests (Female Kunming mice [5]; Time 0): 20.98 ± 1.28
Number of entrances to the peripheral area in open field tests (Female Kunming mice [5]; Time 0): 20.98 ± 1.28
Residence time in the center area in open field tests (Female Kunming mice [5]; Time 0): 20.98 ± 1.28 s
Residence time in the peripheral area in open field tests (Female Kunming mice [5]; Time 0): 20.98 ± 1.28 s
side effects compared with conotoxin (open field) (Female Kunming mice [5]; mouse, in vivo, ip): lower side effects
various indexes in open field experiments compared with the normal saline group (Female Kunming mice [5]; mouse, in vivo, ip): no significant difference
animal reaction thresholds (SD rats; 50 μg/kg and 100 μg/kg, injected subcutaneously): significantly increased
time the pain thresholds lasted (SD rats; [9]): 1 h
highest pain threshold on the operative side (SD rats; [9]): 2.3 ± 0.5 g
pain threshold on the opposite side (SD rats; [9]): 1.2 ± 0.2 g
time the effect on the operative side lasted (SD rats; [10]): about 8 h
highest pain threshold on the operative side (SD rats; [10]): 7.4 ± 0.9 g
pain threshold on the opposite side (SD rats; [10]): 3.2 ± 1.3 g
pain threshold change (SD rats; 300 μg/kg, subcutaneously): not significantly increased
Pain threshold (SD rats; Dose 50 (μg/kg), 0 h): 25.56 ± 0.65 s
Pain threshold (SD rats; Dose 50 (μg/kg), 1 h): 25.23 ± 0.44 s
Pain threshold (SD rats; Dose 50 (μg/kg), 2 h): 26.62 ± 0.56 s
Pain threshold (SD rats; Dose 50 (μg/kg), 3 h): 26.46 ± 0.62 s
Pain threshold (SD rats; Dose 50 (μg/kg), 4 h): 27.15 ± 0.56 s
Pain threshold (SD rats; Dose 50 (μg/kg), 5 h): 26.62 ± 0.13 s
Pain threshold (SD rats; Dose 100 (μg/kg), 0 h): 25.87 ± 0.23 s
Pain threshold (SD rats; Dose 100 (μg/kg), 1 h): 26.12 ± 0.62 s
Pain threshold (SD rats; Dose 100 (μg/kg), 2 h): 27.16 ± 0.32 s
Pain threshold (SD rats; Dose 100 (μg/kg), 3 h): 27.65 ± 0.32 s
Pain threshold (SD rats; Dose 100 (μg/kg), 4 h): 26.23 ± 0.62 s
Pain threshold (SD rats; Dose 100 (μg/kg), 5 h): 25.13 ± 0.32 s
Pain threshold (SD rats; Dose 300 (μg/kg), 0 h): 26.41 ± 0.66 s
Pain threshold (SD rats; Dose 300 (μg/kg), 1 h): 30.12 ± 0.56 s
Pain threshold (SD rats; Dose 300 (μg/kg), 2 h): 30.61 ± 0.62 s
Pain threshold (SD rats; Dose 300 (μg/kg), 3 h): 29.52 ± 0.95 s
Pain threshold (SD rats; Dose 300 (μg/kg), 4 h): 28.62 ± 0.61 s
Pain threshold (SD rats; Dose 300 (μg/kg), 5 h): 27.92 ± 0.61 s
Movement duration of mice in forced swimming tests (Female Kunming mice [6]; 1 h): 19.47 ± 1.32^ s
Movement duration of mice in forced swimming tests (Female Kunming mice [6]; 24 h): 19.03 ± 2.48 s
Movement duration of mice in forced swimming tests (Female Kunming mice [6]; Time 0): 20.98 ± 1.28 s
toxic side effects compared with the conotoxin (forced swimming) (Female Kunming mice [6]; mouse, in vivo, ip): lower toxic side effects
Duration of the immobility of mice in tail suspension tests (Female Kunming mice [7]; 1 h): 19.47 ± 1.32^ s
Duration of the immobility of mice in tail suspension tests (Female Kunming mice [7]; 24 h): 19.03 ± 2.48 s
Duration of the immobility of mice in tail suspension tests (Female Kunming mice [7]; Time 0): 20.98 ± 1.28 s
data of tail suspension test compared with the normal saline group (Female Kunming mice [7]; mouse, in vivo, ip): no significant difference
toxic side effects compared with the conotoxin (tail suspension) (Female Kunming mice [7]; mouse, in vivo, ip): lower toxic side effects
Latency of foot lifting before administration (male BALB/c mice [8]; before administration): 10.12 ± 1.64
Latency (D) of foot lifting after administration (male BALB/c mice [8]; day 4): 9.87 ± 0.78
Latency (D) of foot lifting after administration (male BALB/c mice [8]; day 7): 8.75 ± 0.89
Latency (D) of foot lifting after administration (male BALB/c mice [8]; day 10): 8.31 ± 0.92
Latency (D) of foot lifting after administration (male BALB/c mice [8]; day 14): 6.56 ± 0.56
